{
  "source": "ChEMBL document CHEMBL1129053",
  "about": "“Synthesis and pharmacology of a very potent cannabinoid lacking a phenolic hydroxyl with high affinity for the CB2 receptor” (J Med Chem, 1996)",
  "system": "Mus musculus",
  "assay": "Compound was evaluated in vivo for Pharmacology response in the mouse model Spontaneous Activity",
  "type": "functional",
  "data": [
    {"smiles": "CCCCCc1cc(O)c2c(c1)OC(C)(C)[C@@H]1CCC(C)=C[C@@H]21", "note": "[DRONABINOL]", "values": [
      {"measurement": "ED50", "result": 2.9, "unit": "µmol/kg"}
    ]}
  ]
}
